The values below are quoted from earlier work in patent US20150190331A1, “NAIL LACQUER COMPOSITION WITH HYPOSENSITIVITY” (Pakaly Enterprise Co., Ltd., priority 2014, published 2015).

The subject of this series is guinea pigs. The settings on record: in guinea pigs; International Journal of Toxicology 24(Suppl 5): 53-100, 2005.
For the molecule `C=C(C)C(=O)OCC(CC)(COC(=O)C(=C)C)COC(=O)C(=C)C` [Trimethylolpropane Trimethacrylate], the sensitizer strength result was “strong sensitizers”.

On to PEG-4 Dimethacrylate, for which the sensitizer strength result is reported as “not sensitizers”.

`C=C(C)C(=O)OCCCCCC` [Hexyl Methacrylate]: the sensitizer strength entry is listed as “moderate sensitizers”.

For the molecule Urethane Methacrylate, the sensitizer strength entry is “moderate sensitizers”.

With `C=C(C)C(=O)OC1CCCCC1` [Cyclohexyl Methacrylate], the sensitizer strength entry is reported as “moderate sensitizers”.

As to `C=C(C)C(=O)OCCOCCOCCOC(=O)C(=C)C` [Triethylene Glycol Dimethacrylate], the sensitizer strength result is given as “not sensitizers”.

Regarding `C=C(C)C(=O)OCCCC` [Butyl Methacrylate], the sensitizer strength entry is listed as “moderate sensitizers”.

As to `C=C(C)C(=O)OCCCO` [Hydroxypropyl Methacrylate], the sensitizer strength result is listed as “weak sensitizer”.

With `C=C(C)C(=O)OCCCCCCCCCCCC` [Lauryl Methacrylate], the sensitizer strength entry is recorded as “strong sensitizers”.

Take `C=C(C)C(=O)OCC(O)COc1ccc(C(C)(C)c2ccc(OCC(O)COC(=O)C(=C)C)cc2)cc1` (centres unmarked) [Isopropylidenediphenyl Bisglycidyl Methacrylate]: the sensitizer strength entry is “strong sensitizers”.

Consider `C=C(C)C(=O)OCCO` [HEMA, hydroxyethylmethacrylate], for which the sensitizer strength result is reported as “strong sensitizers”.
